Drawing on BindingDB's records for aid1799744 (Csar, 2012), this text covers Ki for 53 compounds.

The assay has as its target Mitogen-activated protein kinase 1 (Homo sapiens, UniProt P28482). The assay is described as follows: Assay 1.

Sequence of Mitogen-activated protein kinase 1 (P28482 whole entry): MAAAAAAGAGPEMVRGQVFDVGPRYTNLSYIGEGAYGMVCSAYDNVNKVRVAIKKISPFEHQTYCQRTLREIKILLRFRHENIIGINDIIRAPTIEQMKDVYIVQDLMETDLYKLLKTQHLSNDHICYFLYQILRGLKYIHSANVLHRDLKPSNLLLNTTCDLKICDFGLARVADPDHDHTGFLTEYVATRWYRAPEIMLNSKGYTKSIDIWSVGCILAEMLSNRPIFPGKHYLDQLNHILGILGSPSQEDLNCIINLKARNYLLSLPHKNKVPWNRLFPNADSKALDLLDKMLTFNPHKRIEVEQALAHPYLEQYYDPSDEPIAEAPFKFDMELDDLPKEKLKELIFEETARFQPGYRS

For `Cc1cnc(NC2(CO)CC2)nc1-c1c[nH]c(C(=O)N[C@H](CO)c2ccccc2)c1` [erk000460], the Ki (usually a dissociation constant, usually derived from enzyme kinetics or from competition with a known ligand) amounted to 1 nM.

As to `Cc1cnc(NCCO)nc1-c1c[nH]c(C(=O)N[C@H](CO)c2ccccc2)c1` [erk000461], the Ki was found to be 17 nM.

On to `Cc1cnc(N[C@H](C)CO)nc1-c1c[nH]c(C(=O)N[C@H](CO)c2ccccc2)c1` [erk000462], for which the Ki is 14 nM.

`Cc1cnc(NC[C@@H](C)O)nc1-c1c[nH]c(C(=O)N[C@H](CO)c2ccccc2)c1` [erk000463] came in with a Ki of 27 nM. Compared with the last compound, the Ki is about 1.9-fold higher.

Compound `Cc1cnc(NC[C@H](C)O)nc1-c1c[nH]c(C(=O)N[C@H](CO)c2ccccc2)c1` [erk000464] yielded a Ki of 37 nM.

`Cc1cnc(N[C@H]2CCCC[C@H]2O)nc1-c1c[nH]c(C(=O)N[C@H](CO)c2ccccc2)c1` [erk000465] displayed a Ki of 7 nM.

As to `CCNc1ncc(C)c(-c2c[nH]c(C(=O)N[C@H](C(=O)OC)c3ccccc3)c2)n1` [erk000470], the Ki stood at 1000 nM.

The compound `Cc1cnc(N[C@@H](C)CO)nc1-c1c[nH]c(C(=O)N[C@H](CO)c2ccccc2)c1` [erk000471] registered a Ki of 15 nM. This Ki is about 67-fold lower than that of the compound before.

In turn, `CCNc1ncc(C)c(-c2c[nH]c(C(=O)NCc3ccccc3F)c2)n1` [erk000473] returned a Ki of 794 nM. This Ki is about 53-fold higher than that of the compound before.

`CCNc1ncc(C)c(-c2c[nH]c(C(=O)NCc3cccc(F)c3)c2)n1` [erk000474]: affinity was put at a Ki of 83 nM. This Ki lies about 9.6-fold lower than the previous one.

`CCNc1ncc(C)c(-c2c[nH]c(C(=O)NCc3ccccc3OC)c2)n1` [erk000475] registered a Ki of 468 nM. Against the preceding compound, the Ki is about 5.6-fold higher.

With `CCNc1ncc(C)c(-c2c[nH]c(C(=O)NCc3cccc(OC)c3)c2)n1` [erk000476], the affinity, expressed as Ki, was 52 nM.

The compound `CCNc1ncc(C)c(-c2c[nH]c(C(=O)N[C@@H](CO)c3cc(F)cc(C(F)(F)F)c3)c2)n1` [erk000478] displayed a Ki of 120 nM.

As to `CCNc1ncc(C)c(-c2c[nH]c(C(=O)N[C@@H](CO)c3cccc(F)c3)c2)n1` [erk000479], the Ki worked out at 9 nM.

The compound `CCNc1ncc(C)c(-c2c[nH]c(C(=O)NCc3ccccc3O)c2)n1` [erk000480] yielded a Ki of 1510 nM.

`CCNc1ncc(C)c(-c2c[nH]c(C(=O)NCc3cccc(O)c3)c2)n1` [erk000484] showed a Ki of 68 nM. This Ki is about 22-fold lower than that of the compound before.

Consider `CCNc1ncc(C)c(-c2c[nH]c(C(=O)NCc3ccc(O)c(O)c3)c2)n1` [erk000485], for which the Ki amounted to 427 nM.

The compound `CCNc1ncc(C)c(-c2c[nH]c(C(=O)N[C@@H](CO)c3ccccc3F)c2)n1` [erk000486] registered a Ki of 229 nM. This Ki is about 1.9-fold lower than that of the compound before.

`Cc1cnc(N[C@@H](CO)CC2CC2)nc1-c1c[nH]c(C(=O)N[C@H](CO)c2ccccc2)c1` [erk000487] returned a Ki of 4 nM.

In turn, `Cc1cnc(N[C@H](CO)C(C)C)nc1-c1c[nH]c(C(=O)N[C@H](CO)c2ccccc2)c1` [erk000488] registered a Ki of 14 nM.

On to `CCNc1ncc(C)c(-c2c[nH]c(C(=O)N[C@@H](C(C)=O)c3ccccc3)c2)n1` [erk000489], for which affinity was put at a Ki of 1910 nM. This Ki is about 140-fold higher than that of the compound before.

For `CCNc1ncc(C)c(-c2c[nH]c(C(=O)N[C@H](CO)c3cccc(C(F)(F)F)c3)c2)n1` [erk000491], the affinity, expressed as Ki, was 13 nM.

Compound `Cc1cnc(NC2CC2)nc1-c1c[nH]c(C(=O)N[C@H](CO)c2cccc(C(F)(F)F)c2)c1` [erk000492] registered a Ki of 2 nM.

On to `CONc1ncc(C)c(-c2c[nH]c(C(=O)N[C@H](CO)c3ccccc3)c2)n1` [erk000493], for which affinity was put at a Ki of 29 nM.

Take `Cc1cnc(NOC(C)C)nc1-c1c[nH]c(C(=O)N[C@H](CO)c2ccccc2)c1` [erk000494]: the affinity, expressed as Ki, was 10 nM.

As for `CC(=O)Nc1ncc(C)c(-c2c[nH]c(C(=O)N[C@H](CO)c3ccccc3)c2)n1` [erk000496], the Ki amounted to 32 nM.

`Cc1cnc(NC[C@H]2CCCO2)nc1-c1c[nH]c(C(=O)N[C@H](CO)c2ccccc2)c1` [erk000497]: the inhibitory constant (Ki) came out at 14 nM.

Turning to `CCOC(=O)NNc1ncc(C)c(-c2c[nH]c(C(=O)N[C@H](CO)c3ccccc3)c2)n1` [erk000498], the Ki stood at 646 nM.

Regarding `CN(C)c1sc(C#N)c2c1-c1nc(Nc3cccc(O)c3)ncc1CC2` [erk000499], affinity was put at a Ki of 40 nM.

Take `Cc1cnc(NOCC2CC2)nc1-c1c[nH]c(C(=O)N[C@H](CO)c2ccccc2)c1` [erk000500]: the affinity corresponds to a Ki of 26 nM.

`Cc1cnc(-c2ccccc2)nc1-c1c[nH]c(C(=O)N[C@H](CO)c2ccccc2)c1` [erk000501]: the Ki was found to be 20 nM.

On to `Cc1ncc(C)c(-c2c[nH]c(C(=O)N[C@H](CO)c3ccccc3)c2)n1` [erk000502], for which the Ki worked out at 257 nM.

`Cc1cnc(NC#N)nc1-c1c[nH]c(C(=O)N[C@H](CO)c2ccccc2)c1` [erk000503] came in with a Ki of 25 nM. Against the preceding compound, the Ki is about 10-fold lower.

`Cc1cnc(NOCCO)nc1-c1c[nH]c(C(=O)N[C@H](CO)c2ccccc2)c1` [erk000504] displayed a Ki of 18 nM. The Ki values of the last two compounds are within 1.5-fold of each other.

As for `Cc1cnc(NN(C)C)nc1-c1c[nH]c(C(=O)N[C@H](CO)c2ccccc2)c1` [erk000505], the Ki turned out to be 7 nM.

For the compound `CC[C@@H](CO)Nc1ncc(C)c(-c2c[nH]c(C(=O)N[C@H](CO)c3cccc(Cl)c3)c2)n1` [erk000507], the Ki is 2 nM.

The compound `c1ccc2c(Nc3cc(C4CC4)n[nH]3)nc(Nc3ccc4nc[nH]c4c3)nc2c1` [erk000508] had a Ki of 78 nM.

In turn, `Cc1cnc(NC(CO)CO)nc1-c1c[nH]c(C(=O)N[C@H](CO)c2ccccc2)c1` [erk000509] returned a Ki of 5 nM.

In the case of `Cc1cnc(N[C@@H]2C[C@@H]2C)nc1-c1c[nH]c(C(=O)N[C@H](CO)c2ccccc2)c1` [erk000510], the affinity corresponds to a Ki of 0.5 nM.

The compound `Cc1cnc(NC(C)(CO)CO)nc1-c1c[nH]c(C(=O)N[C@H](CO)c2ccccc2)c1` [erk000512] gave a Ki of 6 nM.

Compound `Cc1cnc(NC2(CO)CCCC2)nc1-c1c[nH]c(C(=O)N[C@H](CO)c2ccccc2)c1` [erk000513] gave a Ki of 51 nM.

Turning to `Cc1cnc(N[C@H](CO)CC(C)C)nc1-c1c[nH]c(C(=O)N[C@H](CO)c2ccccc2)c1` [erk000514], the Ki is 9 nM.

`Cc1cnc(N[C@H]2C[C@H]2CO)nc1-c1c[nH]c(C(=O)N[C@H](CO)c2ccccc2)c1` [erk000515] displayed a Ki of 21 nM.

For the compound `Cc1cnc(NC2CCCC2)nc1-c1c[nH]c(C(=O)N[C@H](CO)c2ccccc2)c1` [erk000516], the Ki came to 2 nM.

`Cc1cnc(Nc2ccccn2)nc1-c1c[nH]c(C(=O)N[C@H](CO)c2ccccc2)c1` [erk000517] came in with a Ki of 0.4 nM.

For `Cc1ccnc(Nc2ncc(C)c(-c3c[nH]c(C(=O)N[C@H](CO)c4ccccc4)c3)n2)c1` [erk000518], the affinity corresponds to a Ki of 4 nM.

Compound `Cc1cnc(NCCN2CCOCC2)nc1-c1c[nH]c(C(=O)N[C@H](CO)c2ccccc2)c1` [erk000519] gave a Ki of 120 nM.

Consider `Cc1cnc(NCC[C@@H]2CCCN2C)nc1-c1c[nH]c(C(=O)N[C@H](CO)c2ccccc2)c1` [erk000520], for which the Ki came out at 537 nM. Against the preceding compound, the Ki is about 4.5-fold higher.

Compound `Cc1cccnc1Nc1ncc(C)c(-c2c[nH]c(C(=O)N[C@H](CO)c3ccccc3)c2)n1` [erk000521] displayed a Ki of 91 nM.

In turn, `Cc1cccc([C@@H](CO)NC(=O)c2cc(-c3nc(NC(C)C)ncc3C)c[nH]2)c1` [erk000522] showed a Ki of 1 nM. Compared with the last compound, the Ki is about 91-fold lower.

Consider `Cc1cccc([C@@H](CO)NC(=O)c2cc(-c3nc(NCC(C)C)ncc3C)c[nH]2)c1` [erk000523], for which the Ki turned out to be 2 nM. This Ki is about 2-fold higher than that of the compound before.

As to `Cc1cnc(NCC(C)C)nc1-c1c[nH]c(C(=O)N[C@H](CO)c2cccc(Cl)c2)c1` [erk000525], the Ki is 3 nM.

Compound `Cc1cnc(Nc2cccc(C)c2C)nc1-c1c[nH]c(C(=O)N[C@H](CO)c2cccc(Cl)c2)c1` [erk000526] registered a Ki of 1 nM. Against the preceding compound, the Ki is about 3-fold lower.
